Among the data in PubChem BioAssay AID2202554 (NIEHS Division of Translational Toxicology (DTT)) are outcome values, retold here.

Records with an inconclusive call do not appear. Active and inactive are the calls of the source. No rule for the calls is given here. Residues, ends and D or L forms follow the SMILES beside them.

The series has as its system S. typhimurium/E. coli reverse mutation, colony counts. Briefly: Bacterial reverse mutation test (aka Ames test) summary data. The method in brief:
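Revertant colony counts on plates, compared with untreated controls, after about two days of growth. Exposure with or without liver S9 (rat/hamster/mouse), dose range per strain, 20-min 37° C preincubation or direct plate incorporation. Strains: his⁻ Salmonella, trp⁻ E. coli WP2 uvrA pKM101.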
On the technique in general: In the Ames test, an excess of revertant colonies over the control signals mutagenicity.
On to `ClC1=C(Cl)[C@]2(Cl)[C@@H]3[C@@H]4C[C@@H]([C@H]5O[C@@H]45)[C@@H]3[C@@]1(Cl)C2(Cl)Cl`, for which the outcome was “inactive; negative”.
In the case of `COC(=O)[C@H](Cc1ccccc1)NC(=O)[C@@H](N)CC(=O)O` (H-Asp-Phe-OMe) it was “inactive; negative”.
In the case of `Nc1ccc(F)cc1F` it was “active; positive”.
In the case of `Oc1cc(Cl)c(Cl)cc1Cl` it was “inactive; negative”; in that of `CC(C)CC(C)Nc1ccc(Nc2ccccc2)cc1` (stereo not drawn), “inactive; negative”.
Take `Cc1ccc2c(c1[N+](=O)[O-])C(=O)c1ccccc1C2=O`: the outcome was “active; positive”.
The result for `Clc1ccc(N=Nc2ccc(Cl)c(Cl)c2)cc1Cl` reads “active; positive”; that for `O=C1O[C@H]([C@H](O)CO)C(O)=C1O`, “active; weakly positive”; that for `O.O.O.O.O.O.O=S(=O)([O-])[O-].[Ni+2]`, “inactive; negative”.
In the case of `O=Nc1ccc(NO)cc1` it was “active; positive”; in that of `CCOc1ccc2nc(N)sc2c1`, “active; positive”.
`Cc1cnc[nH]1`: the outcome was “inactive; negative”.
In the case of `Clc1ccc(C(c2ccccc2Cl)C(Cl)Cl)cc1` (stereo not drawn) it was “inactive; negative”.
The result for `CC(C)(C)OOC(C)(C)CCC(C)(C)OOC(C)(C)C` reads “inactive; negative”.
`NO`: the outcome was “active; weakly positive”.
Turning to `c1ccc(OP(Oc2ccccc2)Oc2ccccc2)cc1`, the outcome was “inactive; negative”.
For the compound `O=[N+]([O-])c1cccc2cccc([N+](=O)[O-])c12`, the outcome is “active; positive”.
Take `CCCCOC(=O)c1ccc(O)cc1`: the outcome is “inactive; negative”.
For the compound `ClCBr`, the outcome was “active; positive”.
The result for `NCN` reads “active; positive”.
As for `COP(=O)(OC)OC=C(Cl)Cl`, the outcome was “active; positive”.
Regarding `C1CCCCC1`, the outcome was “inactive; negative”.
For `CCC=CC#N`, the outcome was “inactive; negative”.
In the case of `CSC(C)(C)C=NO` it was “inactive; negative”; in that of `O=C1NC(=O)c2cc([N+](=O)[O-])ccc21`, “active; positive”; in that of `CCCCC(CC)COC(=O)CCCCCCCCC(=O)OCC(CC)CCCC` (stereo not drawn), “inactive; negative”.
The result for `COc1cccc2sc(N)nc12` reads “active; positive”.
For the compound `OCC(Cl)Cl`, the outcome is “active; weakly positive”.
For `CCCCCCCCCCCCCCCCCCCCCCCCCCCCO`, the outcome is “inactive; negative”.
As to `CNC=O`, the outcome is “inactive; negative”.
In the case of `O=Cc1cccc(Br)c1` it was “inactive; negative”; in that of `O=C1NS(=O)(=O)c2ccccc21`, “inactive; negative”.
As for `O=[N+]([O-])C(Br)=Cc1ccccc1`, the outcome is “active; positive”.
On to `CCN(CC)CCO`, for which the outcome was “inactive; negative”.
For `O=C(Cc1ccccc1)OCc1ccccc1`, the outcome was “inactive; negative”.
The result for `O=C(O)c1ccccc1Cl` reads “inactive; negative”; that for `Nc1c(Cl)cc([N+](=O)[O-])cc1Cl`, “active; positive”.
Regarding `ClC(Cl)(Cl)C1CO1` (stereo not drawn), the outcome is “active; positive”.
The result for `CCNNCC` reads “inactive; negative”; that for `Cc1noc(NS(=O)(=O)c2ccc(N)cc2)c1C`, “inactive; negative”; that for `c1ccc2c(c1)CCCC2`, “inactive; negative”.
In the case of `Clc1cc2c(cc1Cl)Oc1cc(Cl)c(Cl)cc1O2` it was “inactive; negative”.
In the case of `CCC(C)Nc1ccc(NC(C)CC)cc1` (stereo not drawn) it was “inactive; negative”; in that of `CC(=O)C(C)O` (stereo not drawn), “inactive; negative”.
On to `Cc1ccncc1`, for which the outcome was “inactive; negative”.
The result for `COc1ccc2nc(N)sc2c1` reads “active; positive”.
For `c1ccc2c(c1)Nc1ccccc1S2`, the outcome is “inactive; negative”.
`c1ccc(CSCc2ccccc2)cc1`: the outcome was “inactive; negative”.
In the case of `Cl/C=C\Cl` it was “inactive; negative”; in that of `ONc1ccccc1`, “active; positive”.
Consider `O=c1c2ccccc2c(=O)c2c1ccc1[nH]c3c(ccc4c(=O)c5ccccc5c(=O)c43)[nH]c12`, for which the outcome is “inactive; negative”.
The result for `COc1cc(S(=O)(=O)O)c(C)cc1N=Nc1c(O)ccc2cc(S(=O)(=O)O)ccc12` reads “inactive; negative”; that for `O=C(NCNC(=O)NC1C(=O)NC(=O)N1CO)NC1C(=O)NC(=O)N1CO` (stereo not drawn), “active; positive”.
As for `CCC(C)c1ccccc1O` (stereo not drawn), the outcome was “inactive; negative”.
`N#Cc1c(Cl)c(Cl)c(Cl)c(C#N)c1Cl`: the outcome is “inactive; negative”.
The result for `CC(=O)C=Cc1ccccc1` reads “active; positive”; that for `Oc1ccc(Cl)cc1Cc1ccccc1`, “inactive; negative”; that for `C[CH2][Pb]([CH2]C)([CH2]C)[CH2]C`, “inactive; negative”.
In the case of `Cc1ccc(N)cc1O` it was “active; positive”; in that of `c1ccc(Nc2ccccc2)cc1`, “inactive; negative”; in that of `Nc1ccc(-c2ccc(N)c(Cl)c2)cc1Cl`, “active; positive”.
The result for `c1ccc(Nc2ccc(Nc3ccccc3)cc2)cc1` reads “active; positive”.
On to `COc1ccc(C(Cl)=C(c2ccc(OC)cc2)c2ccc(OC)cc2)cc1`, for which the outcome was “inactive; negative”.
Take `Nc1ccccc1Cl`: the outcome is “inactive; negative”.
Turning to `CC1(C)CC(N=C=O)CC(C)(CN=C=O)C1` (stereo not drawn), the outcome is “inactive; negative”.
For the compound `CCC1CO1` (stereo not drawn), the outcome was “active; positive”.
In the case of `CN(C)CCC(c1ccccc1)c1ccccn1` (stereo not drawn) it was “inactive; negative”.
The result for `CN(C)c1ccc(N=Nc2ccccc2)cc1` reads “active; positive”; that for `CCCNC(=O)NS(=O)(=O)c1ccc(Cl)cc1`, “inactive; negative”.
Regarding `CC(=O)C(C)=O`, the outcome was “active; positive”.
Take `COC(=O)c1ccccc1C(=O)OC`: the outcome is “inactive; negative”.
Consider `N#CSCSc1nc2ccccc2s1`, for which the outcome is “active; positive”.
The result for `Nc1nc2cc(Cl)c(Cl)cc2s1` reads “inactive; negative”; that for `CCOC(=O)CBr`, “active; positive”; that for `CC1CCCC1`, “inactive; negative”.
The result for `CC(=O)c1cc(C)oc1C` reads “active; positive”; that for `C=CCNC(=S)NCC=C`, “inactive; negative”; that for `CCCCC(CC)COCCCN` (stereo not drawn), “inactive; negative”.
The result for `CCCCC(CC)COP(OCC(CC)CCCC)OCC(CC)CCCC` (stereo not drawn) reads “inactive; negative”; that for `O=[N+]([O-])c1ccc2c3c(cccc13)CC2`, “active; positive”.
Consider `CNC(=S)N(C)C`, for which the outcome was “inactive; negative”.
For the compound `CCOC(=O)CC`, the outcome is “inactive; negative”.
Regarding `CCCCCCCCc1ccc(Nc2ccc(CCCCCCCC)cc2)cc1`, the outcome was “inactive; negative”.
Consider `C=CCCl`, for which the outcome was “active; positive”.
In the case of `CCc1ccc(C(c2ccc(CC)cc2)C(Cl)Cl)cc1` it was “active; positive”; in that of `COC(=O)c1ccccc1O`, “active; weakly positive”; in that of `CCN`, “inactive; negative”.
In the case of `CC(=O)Oc1ccccc1C(=O)O` it was “inactive; negative”; in that of `C=C[C@H]1CN2CC[C@H]1C[C@@H]2[C@@H](O)c1ccnc2ccc(OC)cc12`, “inactive; negative”.
As to `Cc1ccccc1C(OCCN(C)C)c1ccccc1` (stereo not drawn), the outcome is “inactive; negative”.
In the case of `C=C(F)F` it was “active; positive”; in that of `C=CCNCC=C`, “inactive; negative”.
In the case of `O=[N+]([O-])c1cc(Cl)c(Cl)c(Cl)c1Cl`, the outcome was “inactive; negative”.
In the case of `CC(=O)OC(C)=O`, the outcome is “inactive; negative”.
Regarding `Cc1cc(-c2ccc(N)c(C)c2)ccc1N`, the outcome is “active; positive”.
In the case of `CCCCCCCCCC(=O)O` it was “inactive; negative”; in that of `NC(=O)NO`, “inactive; negative”.
As for `Cc1cc(O)c(C(C)(C)C)cc1Sc1cc(C(C)(C)C)c(O)cc1C`, the outcome is “inactive; negative”.
In the case of `Cc1ccc2cc3c(ccc4ccccc43)c3c2c1CC3` it was “active; positive”.
In the case of `NNC(N)=O` it was “inactive; negative”; in that of `O=[N+]([O-])c1ccccc1C(F)(F)F`, “inactive; negative”.
For `Cc1cccc(C)c1O`, the outcome was “inactive; negative”.
As to `O=[N+]([O-])c1c(Cl)cc(Cl)cc1Cl`, the outcome was “inactive; negative”.
The result for `CC(C)COC(=O)c1ccccc1N` reads “inactive; negative”.
As for `Cc1cc(-c2cc(C)c(N)c(C)c2)cc(C)c1N`, the outcome was “inactive; negative”.
In the case of `CN(C)C=O` it was “inactive; negative”.
For the compound `CBr`, the outcome was “active; positive”.
For `Nc1ccccc1O`, the outcome was “active; positive”.
Regarding `ClC1=C(Cl)[C@]2(Cl)[C@@H]3[C@H]4C[C@H]([C@@H]5O[C@H]45)[C@@H]3[C@@]1(Cl)C2(Cl)Cl`, the outcome was “inactive; negative”.
Turning to `c1ccc2c(c1)ccc1ncccc12`, the outcome is “active; positive”.
Consider `CC(C)Oc1ccc(Nc2ccccc2)cc1`, for which the outcome is “inactive; negative”.
In the case of `Nc1ccc(-c2ccc(N)cc2)cc1` it was “active; positive”; in that of `O=C(O)c1cccc(Cl)c1`, “inactive; negative”.
